Laboratory results reported in US12077503B2, “Substituted cyclic amides and their use as herbicides” (FMC CORPORATION, priority 2015, dated 2024).

Assays:
Format in all cases: in vivo
[1] = tested on: barnyardgrass (Echinochloa crus-galli); assay: Test B flooded paddy test; details: Echinochloa crus-galli, 250 g ai/ha, Flood; 0 to 100 scale where 0 is no effect and 100 is complete control; read-out: Barnyardgrass plant response rating
Procedure, shortened: (§1)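 Flooding to 3 cm over soil accompanied treatment, which consisted of adding compound to the standing water around 2-leaf plants; depth was then maintained. Visual assessment versus controls followed at 13 to 15 d (scale 0–100, 0 meaning no effect).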

[2] = tested on: ducksalad (Heteranthera limosa); assay: Test B flooded paddy test; details: Heteranthera limosa, 250 g ai/ha, Flood; 0 to 100 scale where 0 is no effect and 100 is complete control; read-out: Ducksalad plant response rating
Procedure, shortened: as §1

[3] = tested on: sedge, umbrella (small-flower umbrella sedge, Cyperus difformis); assay: Test B flooded paddy test; details: Cyperus difformis, 250 g ai/ha, Flood; 0 to 100 scale where 0 is no effect and 100 is complete control; read-out: Sedge, Umbrella plant response rating
Procedure, shortened: as §1

rice (Oryra sativa) = assay: Test B flooded paddy test; details: Oryza sativa, 250 g ai/ha, Flood; 0 to 100 scale where 0 is no effect and 100 is complete control; read-out: Rice plant response rating
Procedure, shortened: as §1

[4] = tested on: pigweed (Amaranthus retroflexus); assay: Test A postemergence; details: Amaranthus retroflexus, post-emergence, 240 h, Postemergence, read-out: Pigweed plant response rating (0 to 100 scale)
Procedure, shortened: (§2)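 Preemergence directed soil spray on seeded pots, or postemergence application to plants 2–10 cm, one- to two-leaf. Solvent mixture non-phytotoxic, with surfactant. Scored ~10 d later, visually, 0–100 vs untreated.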

[5] = tested on: barnyardgrass (Echinochloa crus-galli); assay: Test A postemergence; details: Echinochloa crus-galli, post-emergence, 240 h, Postemergence
Procedure, shortened: as §2

[6] = tested on: wheat (Triticum aestivum); assay: Test A postemergence; details: Triticum aestivum, post-emergence, 240 h, Postemergence, read-out: Wheat plant response rating (0 to 100 scale)
Procedure, shortened: as §2

corn (Zea mays) = assay: Test A postemergence; details: Zea mays, post-emergence, 240 h, Postemergence, read-out: Corn plant response rating (0 to 100 scale)
Procedure, shortened: as §2

[7] = tested on: blackgrass (Alopecurus myosuroides); assay: Test A postemergence; details: Alopecurus myosuroides, post-emergence, 240 h, Postemergence, read-out: Blackgrass plant response rating (0 to 100 scale)
Procedure, shortened: as §2

[8] = tested on: Galium (catchweed bedstraw, Galium aparine); assay: Test A postemergence; details: Galium, post-emergence, 240 h, Postemergence, read-out: Galium plant response rating (0 to 100 scale)
Procedure, shortened: as §2

[9] = tested on: ragweed (common ragweed, Ambrosia elatior); assay: Test A postemergence; details: Ambrosia artemisiifolia, post-emergence, 240 h, Postemergence, read-out: Ragweed plant response rating (0 to 100 scale)
Procedure, shortened: as §2

Kochia (Kochia scoparia) [10] = assay: Test A postemergence; details: Bassia scoparia, post-emergence, 240 h, Postemergence, read-out: Kochia plant response rating (0 to 100 scale)
Procedure, shortened: as §2

[11] = tested on: giant foxtail (Setaria faberii); assay: Test A postemergence; details: Setaria faberi, post-emergence, 240 h, Postemergence, read-out: Foxtail, Giant plant response rating (0 to 100 scale)
Procedure, shortened: as §2

[12] = tested on: ryegrass, Italian (Italian ryegrass, Lolium multiflorum); assay: Test A postemergence; details: Lolium multiflorum, post-emergence, 240 h, Postemergence, read-out: Ryegrass, Italian plant response rating (0 to 100 scale)
Procedure, shortened: as §2

[13] = tested on: pigweed (Amaranthus retroflexus); assay: Test A preemergence; details: Amaranthus retroflexus, pre-emergence, 240 h, 0 to 100 scale where 0 is no effect and 100 is complete control, read-out: Pigweed plant response rating
[14] = tested on: barnyardgrass (Echinochloa crus-galli); assay: Test A preemergence; details: Echinochloa crus-galli, pre-emergence, 240 h, 0 to 100 scale where 0 is no effect and 100 is complete control, read-out: Barnyardgrass plant response rating
Procedure, shortened: as §2

[15] = tested on: ragweed (common ragweed, Ambrosia elatior); assay: Test A preemergence; details: Ambrosia artemisiifolia, pre-emergence, 240 h, 0 to 100 scale where 0 is no effect and 100 is complete control, read-out: Ragweed plant response rating
Procedure, shortened: as §2

Kochia (Kochia scoparia) [16] = assay: Test A preemergence; details: Bassia scoparia, pre-emergence, 240 h, 0 to 100 scale where 0 is no effect and 100 is complete control, read-out: Kochia plant response rating
Procedure, shortened: as §2

[17] = tested on: giant foxtail (Setaria faberii); assay: Test A preemergence; details: Setaria faberi, pre-emergence, 240 h, 0 to 100 scale where 0 is no effect and 100 is complete control, read-out: Foxtail, Giant plant response rating
Procedure, shortened: as §2

[18] = tested on: ryegrass, Italian (Italian ryegrass, Lolium multiflorum); assay: Test A preemergence; details: Lolium multiflorum, pre-emergence, 240 h, 0 to 100 scale where 0 is no effect and 100 is complete control, read-out: Ryegrass, Italian plant response rating
Procedure, shortened: as §2

[19] = 125 g ai/ha, visual rating about 10 d after treatment
[20] = 31 g ai/ha, 0 is no effect, 100 is complete control
[21] = 125 g ai/ha, preemergence, visual injury rating, approximately 10 d

Q: What does the source list for Cc1ccc([C@H]2CN(C)C(=O)[C@@H]2C(=O)Nc2ccccc2)cc1 [Compound 1291]?
A: pest or weed control at 250 g/ha [1]: 90%; pest or weed control at 250 g/ha [2]: 100%; pest or weed control at 250 g/ha [3]: 0%; pest or weed control at 250 g/ha (rice (Oryra sativa)): 30%; pest or weed control at 125 g/ha [4, 19]: 0%; pest or weed control at 31 g/ha [4, 20]: 0%; pest or weed control at 125 g/ha ([5]; 125 g ai/ha, visual rating about 10 d after treatment, read-out: Barnyardgrass plant response rating (0 to 100 scale, 0 no effect, 100 complete control)): 90%; pest or weed control at 31 g/ha ([5]; 31 g ai/ha, 0 is no effect, 100 is complete control, read-out: Barnyardgrass plant response rating (0 to 100 scale)): 70%; plant injury at 125 g/ha [6, 19]: 30%; plant injury at 31 g/ha [6, 20]: 0%; plant injury at 125 g/ha (corn (Zea mays); [19]): 30%; plant injury at 31 g/ha (corn (Zea mays); [20]): 0%; pest or weed control at 125 g/ha [7, 19]: 0%; pest or weed control at 31 g/ha [7, 20]: 0%; pest or weed control at 125 g/ha [8, 19]: 20%; pest or weed control at 31 g/ha [8, 20]: 0%; pest or weed control at 125 g/ha [9, 19]: 0%; pest or weed control at 31 g/ha [9, 20]: 0%; pest or weed control at 125 g/ha (Kochia (Kochia scoparia) [10]; [19]): 0%; pest or weed control at 31 g/ha (Kochia (Kochia scoparia) [10]; [20]): 0%; pest or weed control at 125 g/ha [11, 19]: 80%; pest or weed control at 31 g/ha [11, 20]: 70%; pest or weed control at 125 g/ha [12, 19]: 0%; pest or weed control at 31 g/ha [12, 20]: 0%; pest or weed control at 31 g/ha ([13]; 31 g ai/ha, Preemergence): 0%; pest or weed control at 125 g/ha [13, 21]: 100%; pest or weed control at 31 g/ha ([14]; 31 g ai/ha, Preemergence): 100%; pest or weed control at 125 g/ha [14, 21]: 100%; pest or weed control at 31 g/ha ([15]; 31 g ai/ha, Preemergence): 0%; pest or weed control at 125 g/ha [15, 21]: 0%; pest or weed control at 31 g/ha (Kochia (Kochia scoparia) [16]; 31 g ai/ha, Preemergence): 0%; pest or weed control at 125 g/ha (Kochia (Kochia scoparia) [16]; [21]): 40%; pest or weed control at 31 g/ha ([17]; 31 g ai/ha, Preemergence): 100%; pest or weed control at 125 g/ha [17, 21]: 100%; pest or weed control at 31 g/ha ([18]; 31 g ai/ha, Preemergence): 0%; pest or weed control at 125 g/ha [18, 21]: 20%
